Results from publication PMC4667193 (Scientific Reports, 2015).

Columns and labels:
[1] = system: rat primary hippocampal cell culture; experiment: total [^3H]inositol phosphate accumulation in hippocampal cells; type: cell-based; conditions: 10^−8 to 10^−3 M
Method: Hippocampal cells (1 × 10^6 cells/well) were allowed to equilibrate for 10 minutes with a nutrient solution of the following composition (mM): NaCl 157.00; KCl 5.60; CaCl2 0.27; MgCl2 3.00; NaHCO3 1.80; glucose 5.50 (pH 7.0–7.2) at 37 °C under constant shaking. Cells were incubated with 5 μCi of myo[^3H]inositol (specific activity 18.0 Ci/mmol) for 80 minutes, and lithium chloride (10 mM) for additional 30 minutes. Afterwards, the cells were incubated in the absence (basal level) and in the presence of carbachol (positive control) and AEME (10^−8 to 10^−3 M) for 10 minutes. Cells were removed from the plate using a 0.1 M NaOH solution and washed three times with nutrient solution, transferred to 2 mL of methanol:chloroform (2:1 v-v) at 4 °C and homogenized with a Ultra-Turrax T25 homogenizer at 9500 rpm. Chloroform (0.62 mL) and H2O (0.93 mL) were added to the homogenate, and the solution was centrifuged for 5 minutes at 1,000× g to separate aqueous and organic phases. Total [^3H]inositol phosphate was measured as previously described by Ascoli et al.[45] with slight modification. The aqueous layer was neutralized with 0.1 M HCl and then mixed with 1 mL anion-exchange resin (Dowex AG-X8, formate form, 200–400 mesh), allowed to equilibrate for 30 minutes at room temperature, under agitation, and centrifugated at 1,000× g, for 5 minutes at 4 °C. The resin was then washed sequentially, with 10 mM myo-inositol (2 mL) and 5 mM sodium tetraborate/60 mM sodium formate (2 mL). The resin was incubated for 30 minutes at room temperature with 2 mL of 0.1 M formic acid/1 M ammonium formate). The total [^3H]inositol phosphate was eluted and placed in scintillation vials containing OptiPhase HiSafe 3. The amount of radioactivity was determined in scintillation β-counter (LS 6500 IC, Beckman). Total [^3H]inositol phosphate was expressed as percentage above basal level.

[2] = target: muscarinic cholinergic receptors; conditions: [^3H]QNB, rat hippocampus; cited from earlier work
[3] = system: rat primary hippocampal cell culture; experiment: MTT viability assay, AEME-induced neurotoxicity; type: cell-based; conditions: 10^−3 M AEME, 24 hours, % of control
Method: Neuronal viability was evaluated in the hippocampal cell culture using the 3-(4,5-dimethylthiazol-2-yl)-2,5-diphenyltetrazolium bromide (MTT; Sigma) reduction assay, with some modification. Briefly, after 24 hours of incubation with 10^−3 M AEME in the absence and in the presence of 10 nM pirenzepine hydrochloride (M1 selective antagonist; Sigma), 10 nM p-F-HHSiD (M3 selective antagonist; Sigma) and the specific inhibitor of different isoforms of PLC U73122 (10 nM)[55] (Sigma), all the medium was removed, and 100 μL of MTT solution, containing 5 mg/mL MTT in PBS and neurobasal medium without phenol red (1:9, v/v) were added. After 3 hours of incubation with MTT at 37 °C in a humidified atmosphere of 5% CO2, the MTT solution was removed and 200 μL of dimethyl sulfoxide was added to each well. After 30 minutes of shaking, the absorbance was measured at 570 nm in a multiwell plate reader (BioTek Synergy H1 Hybrid Reader). Potassium chloride (250 mM) was used as a positive control of neuronal death. Muscarinic antagonists, as well as the iPLC, were added 30 minutes prior to incubation with AEME. The antagonist concentration used was near the pKi[25][56]. A control containing 0.002% DMSO was used, since the iPLC stock solution was previously dissolved in this solvent. The assay was performed in quadruplicate, and the results were expressed as a percentage of the control value.

Rat M3 mAChR = target: T1, Rat M3 mAChR (Rattus norvegicus, UniProt P08483); experiment: calcium mobilization assay in CHO cells; type: cell-based
T1 construct: host or cells: CHO (CHO-K1) cells
Method: (§1) CHO cells expressing rM1, rM3 and rM5 were plated at 4 × 10^4 cells per well, whereas rM2 and rM4 were plated at 6 × 10^4 cells per well, in standard growth media (as described previously under “cell culture”) in 96-well plates 24 hours before assay and were incubated overnight at 37 °C in 5% CO2. […] Cells were incubated for 45 minutes (37 °C, 5% CO2) for dye loading. Fluo4-AM dye was removed, cells were washed and replaced with 40 μL of calcium assay buffer. AEME concentration-response curves were determined in single-add experiments. […] All compounds were dissolved in dimethyl sulfoxide (DMSO) and then in calcium assay buffer to obtain a final DMSO concentration of 0.3%. […] These values were fit using GraphPad Prism version 5.0 to determine EC50 values and Schild slope and pA2 in the Schild analyses.

Rat M1 mAChR = target: T2, Rat M1 mAChR (Rattus norvegicus, UniProt P08482); experiment: calcium mobilization assay in CHO cells; type: cell-based
T2 construct: host or cells: CHO (CHO-K1) cells
T2 sequence (P08482 1-460): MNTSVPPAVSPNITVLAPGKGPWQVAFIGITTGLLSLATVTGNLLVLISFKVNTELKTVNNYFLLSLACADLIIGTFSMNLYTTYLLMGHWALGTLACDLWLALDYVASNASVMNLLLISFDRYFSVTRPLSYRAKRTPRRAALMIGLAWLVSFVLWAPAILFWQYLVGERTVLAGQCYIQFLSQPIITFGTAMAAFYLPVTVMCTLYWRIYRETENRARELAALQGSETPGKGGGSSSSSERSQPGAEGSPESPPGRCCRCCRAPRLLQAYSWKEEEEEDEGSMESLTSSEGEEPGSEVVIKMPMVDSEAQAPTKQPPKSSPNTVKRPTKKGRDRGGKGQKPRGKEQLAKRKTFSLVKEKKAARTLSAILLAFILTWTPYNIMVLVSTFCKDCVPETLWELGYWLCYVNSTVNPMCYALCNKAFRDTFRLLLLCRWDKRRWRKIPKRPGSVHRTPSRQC
Method: as §1

T1 sequence (P08483 whole entry): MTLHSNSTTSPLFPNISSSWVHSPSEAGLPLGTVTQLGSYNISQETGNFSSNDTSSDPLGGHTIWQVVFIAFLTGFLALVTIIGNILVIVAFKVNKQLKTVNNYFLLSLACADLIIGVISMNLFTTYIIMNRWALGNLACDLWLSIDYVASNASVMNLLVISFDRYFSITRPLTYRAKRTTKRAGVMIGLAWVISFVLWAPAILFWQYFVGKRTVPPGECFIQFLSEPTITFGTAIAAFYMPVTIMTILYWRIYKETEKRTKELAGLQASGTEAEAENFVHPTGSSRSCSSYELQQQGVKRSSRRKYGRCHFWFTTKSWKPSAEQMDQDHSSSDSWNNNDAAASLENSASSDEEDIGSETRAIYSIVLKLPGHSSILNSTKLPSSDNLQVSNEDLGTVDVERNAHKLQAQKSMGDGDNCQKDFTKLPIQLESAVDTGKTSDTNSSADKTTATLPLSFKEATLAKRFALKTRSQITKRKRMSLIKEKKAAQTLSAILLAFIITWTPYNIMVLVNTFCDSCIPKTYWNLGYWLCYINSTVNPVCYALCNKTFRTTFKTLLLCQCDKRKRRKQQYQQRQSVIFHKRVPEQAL

SMILES: COC(=O)C1=CC[C@@H]2CC[C@H]1N2C [AEME, anhydroecgonine methyl ester]
- effect on total [^3H]inositol phosphate [1]: concentration-dependent increase
- concentration giving maximum inositol phosphate accumulation ([1]; 10 minutes): 10^−5 M
- pKi [2]: 4.15 ± 0.15
- viable cells [3]: 67.2%
- mechanism of action (Rat M3 mAChR; rat M3): partial agonist-activity
- % of the maximum acetylcholine response (Rat M3 mAChR; rat M3, agonist mode): 27.2%
- EC50 (Rat M3 mAChR; rat M3, agonist mode (single-add)): > 100 µM
- mechanism of action (Rat M1 mAChR; rat M1): partial agonist-activity
- % of the maximum acetylcholine response (Rat M1 mAChR; rat M1, agonist mode): 38.3%
- EC50 (Rat M1 mAChR; rat M1, agonist mode (single-add)): > 100 µM
